Ends that are not written are not given here.
Experiments:
[1] = test system: Staphylococcus aureus ATCC 25923; test: MIC (minimum inhibitory concentration) test, microdilution; format: cell-based
Experimental: (§1) The bacterial strains used were: Escherichia coli ATCC 25922 and Staphylococcus aureus ATCC 25923. All strains were stored at −70° C. The bacteria were grown in 2% Bacto Peptone water (Difco 1807-17-4). All tests were performed with bacteria in mid-logarithmic growth phase. Determination of the minimum inhibitory concentration (MIC) of the peptides for bacterial strains were performed in 1% Bacto Peptone water. A standard microdilution technique with an inoculum of 2×10^6 CFU/ml was used. All assays were performed in triplets. Since the peptides are positively charged and therefore could adhere to the plastic wells, we controlled the actual concentration of the peptides in the solution by HPLC. There was no difference between the concentration of the peptides before or after adding the solution to the plastic wells.

[2] = test system: Escherichia coli ATCC 25922; test: as above; format: cell-based
Experimental: as §1

[3] = test system: Meth A cells (murine sarcoma cell line); test: Cytotoxicity on Meth A cells, MTT method
Experimental: Peptide solutions (0.1 ml) were added and the plates incubated at 37° C. for 30 minutes, 4 hours or 24 hours. The cytotoxicity was measured using the MTT method (Mosmann et al., J. Immunol. (1986) 136, 2348-2357).
Cells in the growth phase were harvested and washed in fresh medium and injected subcutaneously into the abdominal region of the mice.
The cytotoxic effect of the peptides on different murine and human tumor cells were measured using the MTT method (Mosmann et al., J. Immunol. (1986) 136, 2348-2357).
MTT is a soluble tetrazolium salt yielding a yellow solution when prepared in media or salt solutions lacking phenol red. Dissolved MTT is converted to an insoluble purple formazan by cleavage of the tetrazolium ring by dehydrogenase enzymes. This water insoluble formazan can be solubilized using isopropanol or other solvents and the dissolved material is measured spectrophotometrically. The absorbance was measured as a function of concentration of converted dye.
Cells were maintained in […] medium containing 10% FBS, 1% L-glutamine and 0.1% penicillin and streptomycin. Cells to be used in the assay were grown to confluency, trypsinated and split to single cell suspension, counted and centrifuged at 1500 rpm for 10 min. […][…] of cell suspension was transferred to each well on a 96-well microtiter plate. The cells were stimulated by adding […] of various concentrations of peptides diluted with assay medium to each well. The final concentrations of peptide were for example: 5, 10, 20, 40, 60, 80, 100, and 200 mg/ml. […] As a negative control only medium was added to the cells, and as a positive control (100% killing) 1% triton X-100 was added. Following an incubation period of 4 h., 20 ml MTT dissolved in PBS at a concentration of 5 mg/ml was added to each well, and the plate was incubated further for 2 h. 130 ml of the supernatant were then removed and […] acid alcohol (0.04-0.1 N HCl in isopropanol) added to each well to dissolve the dark blue crystals. The plate was placed on a shaker for 1 h and read spectrophotometrically at 590 nm in a microtiterplate reader using the Softmaxâ program.

[4] = test system: human red blood cells; test: Hemolytic assay; format: cell-based; details: red cells of human
Experimental: The hemolytic activities of the peptides were determined using fresh human red blood cells. 8 ml blood was taken from a healthy person. 4 ml blood was transferred to a polycarbonate tube containing heparin to a final concentration of 10 U/ml, and the remaining 4 ml blood was transferred to a glass tube containing EDTA with final concentration of 15% EDTA. The erythrocytes were isolated from heparin-treated blood by centrifugation in 1500 rpm for 10 min and washed three times with phosphate-buffered saline (PBS) to remove plasma and buffy coat. The cell pellet was resuspended in PBS to make the final volume of 4 ml. The peptide was diluted to a concentration of 2 mg/ml and 0.1 mg/ml. The peptide was further diluted to the concentrations as stated in Table 1. For each tube PBS was added first, then RBCs and peptide solutions. The hematocrit in the blood treated with EDTA was determined after 30 min with Sysmex K-1000, and the resuspended RBCs were diluted into 10% hematocrit. RBCs in PBS (1%) with and without peptides (Table 18) were incubated in a shaker at 37° for 1 hour and then centrifuged at 4000 rpm for 5 min. The supernatant were carefully transferred to new polycarbonate tubes and the absorbance of the supernatant was measured at 540 nm. Baseline hemolysis was hemoglobin released in the presence of PBS, and 100% hemolysis was hemoglobin released in the presence of 0.1% Triton X-100.

[5] = test system: MRSA (methicillin resistant S. aureus); format: cell-based; details: Table 15
Experimental: as §1
Table 15 below gives the antibacterial activity and toxicity data for some preferred peptides of the invention. MRSA is methicillin resistant S. aureus and MRSE is methicilin resistant S. epidermidis.

[6] = Table 7, in µg/mL (unit assumed)

Substance	MIC S. aureus ([1]; ATCC 25923)	MIC E. coli ([2]; ATCC 25922)	Meth A IC 50 ([3]; 4 h) [µg/mL]	also measured
H-GIGKFLHSAKKFGKAFVGEIMNS-OH [Mag2, reference compound]				MIC S. aureus [1, 6]: >200; MIC S. aureus ([1]; Table 11): >100 µg/mL; MIC E. coli [2, 6]: 20; MIC E. coli ([2]; Table 11): 20 µg/mL; Meth A IC 50 ([3]; Table 11, peptide required to kill 50% of Meth A cells): 100 µg/mL
H-KVALKALKVALKALKVALKAL-NH2 [MSI 20, reference compound]			>100	
KVALKWLKVALKALKVALKAL-NH2 (C-terminus assumed) [MSI 20 W6]			22	
Linear LFB (17-41) modified with Pmc: Linear LFB (17-41) modified with Pmc (FKCRRWQWRMKKLGAPSITCVRRAF; cysteine pairing not given here; also: modified with Pmc group, site not given here; UniProt P24627 36-60, looked up, fragment)				cytotoxic effect on Meth A cells compared with another peptide [3]: slightly more effective than Pmc modified LFB 17-31
PAWRKARRWAWRMKKLAA-OH [LFB 14-31 A2,6,10,17R4]	8.8 µM	13.1 µM		MIC S. aureus ([1]; Table 8): 20 µg/mL; MIC S. aureus ([1]; Table 15): 20.0 µg/mL; MIC E. coli ([2]; Table 8): 30 µg/mL; MIC E. coli ([2]; Table 15): 30.0 µg/mL; EC 50 (toxicity, hemolysis) [4]: >1000 µg/mL
YRWWRWARRW-NH2 [LFM 17-26 A7R2,8,9W3,4, 10Y1NH2]				MIC S. aureus ([1]; Table 15): 1.0 µg/mL; MIC E. coli ([2]; Table 12): 10 µg/mL; MIC E. coli ([2]; Table 15): 10.0 µg/mL; MIC MRSA [5]: 2.5 µg/mL

Further lines, with some results ahead:

MIC S. aureus ([1]; ATCC 25923)	MIC E. coli ([2]; ATCC 25922)	Substance	Meth A IC 50 ([3]; 4 h) [µg/mL]	also measured
8 µg/mL	8 µg/mL	H-GIGKFLKKARKFGRAFVRILKKG-OH [Tosmag, reference compound]	18	
5 µg/mL	5 µg/mL	H-KMASKAGKIAGKIAKVALKAL-NH2 [MSI 24, reference compound]	>100	
2.5 µg/mL	5 µg/mL	KMASKAGKIAWKIAKVALKAL-NH2 (C-terminus assumed) [MSI 24 W11]	24	
5 µg/mL	5 µg/mL	KMASKAWKIAGKIAKVALKAL-NH2 (C-terminus assumed) [MSI 24 W7]	26	

Reference: patent US9109048B2, “Inhibition of tumor growth” (priority 1998, dated 2015)
